Here are results for eight compounds from patent US6881421B1 (Bioalliance Pharma S.A., priority 1998, dated 2005).

For orientation: solubility means the concentration that dissolves in the medium under given conditions.

A short description of data set [1]: Titration of progesterone/steroid content of nanoparticles by HPLC. The note with it: for Drug load: average of 3 values; for Increase in content load (number of times): PIBCA/HP CD particles versus PIBCA without HP CD; for Content of combined PIBCA and HP CD particles / Content of PIBCA nanoparticles without HP CD: average of three preparations; for Content of PIBCA nanoparticles without HP CD: reference particles. The class given is physicochemical. On the procedure: (§1) The different suspensions of nanoparticles were centrifuged at 82,000 g for 30 to 40 min at 25° C. (Beckman, L5-65 Ultracentrifuge, 70.1 Ti type rotor) and resuspended in 5 ml distilled water. The suspensions were finally freeze-dried (Christ HED Freeze Drier, Germany).
To titrate the progesterone content in the nanoparticles, the freeze-dried products were diluted in acetonitrile of HPLC grade and the solutions analyzed by high performance liquid chromatography (HPLC). The HPLC system consisted of a 510 solvent delivery unit (Waters-Saint-Quentin-en-Yvelines, France), a WISP 712 automatic sampler, a column Nova-Pak C18 4 μm column (250×4.6 mm), a 486 absorbency detector which operated at 245 NM and interfaced with a 746 data module. The flow rate was 1.0 ml/min and the mobile phase made up of water and acetonitrile (40:60) for which the retention time was approximately 12 min. The results were expressed as an average of three titrations.
The different steroids were determined as in Example 6 so that the titration of these different substances was conducted under the same analytical conditions.

A short description of data set [2]: Titration of cyclodextrin content of nanoparticles (phenolphthalein spectrophotometry). The format is physicochemical. On the procedure:
as §1
For quantification of HPβCD, the freeze-dried nanoparticles were hydrolyzed with 0.2 M NaOH for 12 hours, the pH adjusted to 7.0 (±0.5) and the HPBCD quantified by spectrophotometric titration of the discoloring of phenolphthalein solutions in the presence of HPβCD. Phenolphthalein formed stable, colorless inclusion complexes with cyclodextrins (CD). Consequently, the color intensity of a phenolphthalein solution in alkaline borate buffer decreased in proportion to the quantity of CD in solution.
Reference solutions were prepared by diluting mother solutions of CD in alkaline borate buffer solution with pH 10.0 containing 2% ethanol solution of 0.006 M phenolphthalein. The reference curves (λ=550 nm) are linear for CD concentrations ranging from 1 to 100 μg/ml. To the samples were added 4 parts buffer solution containing phenolphthalein and they were then tested directly.
The HPβCD was also titrated as in Example 6.

Data set [3] can be described thus: In vitro release of HPβCD from PIBCA/HPβCD nanoparticles. The format is physicochemical. The note with it: ABB medium, 37° C.; during the first hour. On the procedure:
Study of the release of HPBCD was conducted as for progesterone in ABB medium with quantification of the CD content after ultracentrifuging, by complexation with phenolphthalein as described above. The CD concentration at 100% release was approximately 100 μg/ml.

The nature of data set [4]: In vitro release of progesterone from PIBCA/HPβCD nanoparticles. The format is physicochemical. Particulars: for progesterone released, second slower phase / progesterone released, initial rapid release: ABB pH 8.4, 37° C.; for progesterone released, initial rapid release: first hour; for progesterone released: ABB with 40% PEG 400. On the procedure:
A weighed quantity of freeze-dried nanoparticles (containing 1% (w/v) of glucose) was placed in a bottle containing 15 ml of alkaline borate buffer solution (ABB) (pH 8.4) or of ABB containing esterases (25 and 100 IU) or of ABB/poly(ethyleneglycol) 400 (PEG) at 20 and 40% (v/v). The samples were magnetically stirred at 200 r/min and 37° C., and taken at predetermined intervals. The suspensions were centrifuged at 82,000 g for 30 minutes at 20° C., then the progesterone content of the supernatant is determined for all media and the HPβCD content for the PEG media. The progesterone content is determined using HPLC as described above with injection of 100 μl for the samples incubated in ABB media and 20 μl for the PEG media.
All the tests are conducted under conditions such 15 that the active ingredient concentration during the release stage is maintained below 10% saturation.

Data set [5] is described as follows: Solubility of progesterone. The format is physicochemical. Particulars: polymerization medium, aqueous with cosolvent or surfactant or cyclodextrin; diluted hydrochloric acid (pH 2.0), 1% (w/v) poloxamer 188; read-out: maximum solubility in the polymerization medium.
For data set [6] the following is noted: cited from earlier work.
Where [7] appears, read: PIBCA nanoparticles without HPβCD.
Where [8] appears, read: PIBCA/HPBCD nanoparticles (10 mg/ml HPβCD).

≈ marks a conversion by molar mass, not a printed value.

`C#C[C@]1(O)CC[C@H]2[C@@H]3CCC4=Cc5oncc5C[C@]4(C)[C@H]3CC[C@@]21C` [Danazol, danazol]: the “Drug load” value in data set [1] (setting [7]) turned out to be 0.34 mg/g. Besides, in data set [1], the “Increase in content load (number of times)” value (shortened to “Increase in content load”) was 32.9 number of times; the “Content of combined PIBCA and HP CD particles” value was determined as 33.19 mmol/g; the “Content of PIBCA nanoparticles without HP CD” value was determined as 1.01 mmol/g. The “Drug load” value in data set [1] (setting [8]) was found to be 11.2 mg/g.

On to `CC(O)COC[C@H]1O[C@@H]2O[C@H]3[C@H](O)[C@@H](O)[C@@H](O[C@H]4[C@H](O)[C@@H](O)[C@@H](O[C@H]5[C@H](O)[C@@H](O)[C@@H](O[C@H]6[C@H](O)[C@@H](O)[C@@H](O[C@H]7[C@H](O)[C@@H](O)[C@@H](O[C@H]8[C@H](O)[C@@H](O)[C@@H](O[C@H]1[C@H](O)[C@H]2O)O[C@@H]8COCC(C)O)O[C@@H]7COCC(C)O)O[C@@H]6COCC(C)O)O[C@@H]5COCC(C)O)O[C@@H]4COCC(C)O)O[C@@H]3COCC(C)O` (stereo partly drawn) [HPβCD, 2-hydroxypropyl-β-cyclodextrin], for which the “quantity of HPβCD associated with the particles” value in data set [2] (equal initial masses of HPβCD and isobutylcyanoacrylate in the polymerization medium) is on record as “approximately 35%”; in data set [2] (maximum reached with increasing HPβCD (FIG. 3)) it was “about 60 % of particle weight”. Further, the cyclodextrin released in data set [3] was about 100%.

Take `C[C@]12CCC(=O)C=C1CC[C@@H]1[C@@H]2[C@@H](O)C[C@@]2(C)[C@H]1CC[C@]2(O)C(=O)CO` [Hydrocortisone, hydrocortisone]: in data set [1] (setting [7]), the “Drug load” value stood at 2.19 mg/g. In data set [1], the “Increase in content load” value is 7.0 number of times; the “Content of combined PIBCA and HP CD particles” value stood at 42.21 mmol/g; the “Content of PIBCA nanoparticles without HP CD” value was determined as 6.04 mmol/g. Moreover, in data set [1] (setting [8]), the “Drug load” value amounted to 15.3 mg/g.

On to `CC(=O)O[C@]1(C(C)=O)CC[C@H]2[C@@H]3C=C(C)C4=CC(=O)CC[C@]4(C)[C@H]3CC[C@@]21C` [Megestrolacetate, megestrol acetate], for which the “Drug load” value in data set [1] (setting [7]) is 0.25 mg/g. In addition, in data set [1], the “Increase in content load” value was 5.6 number of times; the “Content of combined PIBCA and HP CD particles” value was 3.64 mmol/g; the “Content of PIBCA nanoparticles without HP CD” value turned out to be 0.65 mmol/g. The “Drug load” value in data set [1] (setting [8]) is 1.4 mg/g.

For `C[C@]12C=CC(=O)C=C1CC[C@@H]1[C@@H]2[C@@H](O)C[C@@]2(C)[C@H]1CC[C@]2(O)C(=O)CO` [Prednisolone, prednisolone], the “Drug load” value in data set [1] (setting [7]) is 0.12 mg/g; in data set [1] (setting [8]), 15.5 mg/g. Also, the “Increase in content load” value in data set [1] was 129.2 number of times; in data set [1] (listed as prednisolone), 129 number of times. In addition, the “Content of combined PIBCA and HP CD particles” value in data set [1] was determined as 43.00 mmol/g. For the same compound, the “Content of PIBCA nanoparticles without HP CD” value in data set [1] was determined as 0.33 mmol/g.

For `CC(=O)[C@H]1CC[C@H]2[C@@H]3CCC4=CC(=O)CC[C@]4(C)[C@H]3CC[C@]12C` [Progesterone, progesterone], in data set [1] (setting [7]), the “Drug load” value came out at 0.79 mg/g. In data set [1], the “Increase in content load” value is given as 27.7 number of times; the “Content of combined PIBCA and HP CD particles” value worked out at 69.60 mmol/g; the “Content of PIBCA nanoparticles without HP CD” value stood at 2.51 mmol/g. The “Drug load” value in data set [1] (setting [8]) was found to be 24.0 mg/g. In addition, the progesterone content in data set [1] (larger particles (170 nm)) stood at 10.5 µg/mg. Moreover, the “progesterone content of particles” value in data set [1] (prepared in the presence of HPβCD, highest content (FIG. 5)) is given as 45 μg/mg of particles. The compound also had an active ingredient content in data set [1] (smallest nanoparticles (70 nm)) of 24 µg/mg. In data set [4] (70 nm nanoparticles), the “progesterone released, second slower phase” value is given as about 62% and the “progesterone released, initial rapid release” value is recorded as about 34%. In data set [4] (150 nm nanoparticles), the “progesterone released, second slower phase” value is “approximately 35%” and the “progesterone released, initial rapid release” value is given as “approximately 10%”. Moreover, the progesterone released entry in data set [4] (first-named formulation (150 nm)) is reported as “approximately 75%”. Also, the progesterone released in data set [4] (second-named formulation (70 nm)) is recorded as about 82%. The “quantity of released progesterone” value in data set [4] (ABB with esterases (25 and 100 IU), both tested formulations) is given as about 100%. In data set [5], the solubility was about 60 µg/mL (≈ 191 µM). Moreover, in data set [6], the water-solubility is 10 µg/mL.

`CC(=O)S[C@@H]1CC2=CC(=O)CC[C@]2(C)[C@H]2CC[C@@]3(C)[C@@H](CC[C@@]34CCC(=O)O4)[C@H]12` [Spironolactone, spironolactone]: the “Drug load” value in data set [1] (setting [7]) is on record as 7.65 mg/g. Besides, in data set [1], the “Increase in content load” value is reported as 6.9 number of times; the “Content of combined PIBCA and HP CD particles” value was found to be 127.23 mmol/g; the “Content of PIBCA nanoparticles without HP CD” value is 18.36 mmol/g. Moreover, the “Drug load” value in data set [1] (setting [8]) is 53.0 mg/g.

On to `C[C@]12CC[C@H]3[C@@H](CCC4=CC(=O)CC[C@@]43C)[C@@H]1CC[C@@H]2O` [Testosterone, testosterone], for which, in data set [1] (setting [7]), the “Drug load” value is 2.27 mg/g. Moreover, in data set [1], the “Increase in content load” value is given as 8.6 number of times; the “Content of combined PIBCA and HP CD particles” value is 67.6 mmol/g; the “Content of PIBCA nanoparticles without HP CD” value is 7.87 mmol/g. Besides, the “Drug load” value in data set [1] (setting [8]) was determined as 19.5 mg/g.
